Test [1] has as its target T1, Cytochrome P450 3A4 (Homo sapiens, UniProt P08684). Particulars: Potency.
The next test deals with H9c2. Kind of test: cells. It is filed as functional, cell-based. Particulars: Rattus norvegicus, H9c2, Myocardium.
Another test concerns the target T2, Leucine aminopeptidase (Plasmodium falciparum 3D7, UniProt Q8IL11).
T2 sequence (Q8IL11 whole entry): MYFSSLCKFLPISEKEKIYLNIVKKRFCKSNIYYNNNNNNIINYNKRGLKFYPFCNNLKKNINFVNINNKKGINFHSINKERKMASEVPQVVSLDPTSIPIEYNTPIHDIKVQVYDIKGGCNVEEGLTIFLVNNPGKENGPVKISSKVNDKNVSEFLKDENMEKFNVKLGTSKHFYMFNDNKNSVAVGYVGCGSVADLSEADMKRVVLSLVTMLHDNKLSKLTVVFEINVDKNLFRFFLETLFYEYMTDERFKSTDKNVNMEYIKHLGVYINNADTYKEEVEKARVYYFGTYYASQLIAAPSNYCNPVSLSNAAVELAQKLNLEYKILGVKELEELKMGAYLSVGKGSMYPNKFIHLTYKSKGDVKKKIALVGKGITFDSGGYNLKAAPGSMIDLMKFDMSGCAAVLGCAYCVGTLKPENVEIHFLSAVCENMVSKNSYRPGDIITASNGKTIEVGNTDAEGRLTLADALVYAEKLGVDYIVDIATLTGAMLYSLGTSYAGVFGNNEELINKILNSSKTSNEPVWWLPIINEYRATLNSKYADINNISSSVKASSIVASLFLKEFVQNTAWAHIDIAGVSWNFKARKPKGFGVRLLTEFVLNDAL
Kind of test: P. falciparum M17LAP inhibitors, primary screen, biochemical, fluorogenic H-Leu-NHMec substrate, 1536-well (AID 1619). It is filed as functional.

The subject of test [2] is Streptococcus sp. 'group A'. Kind of test: growth inhibition of control SK(-) GAS strain, dose response, counter-screen for streptokinase expression inhibitor project, luminescence, kanamycin, BacTiterGlo, confirmation (AID 1900). Format: functional, organism-based. Background: The purpose of a counterscreen is to sort out artefacts and off-target activity.
Another test has as its target T3, Streptokinase A (Streptococcus pyogenes serotype M1, UniProt P10520).
T3 sequence (P10520 whole entry): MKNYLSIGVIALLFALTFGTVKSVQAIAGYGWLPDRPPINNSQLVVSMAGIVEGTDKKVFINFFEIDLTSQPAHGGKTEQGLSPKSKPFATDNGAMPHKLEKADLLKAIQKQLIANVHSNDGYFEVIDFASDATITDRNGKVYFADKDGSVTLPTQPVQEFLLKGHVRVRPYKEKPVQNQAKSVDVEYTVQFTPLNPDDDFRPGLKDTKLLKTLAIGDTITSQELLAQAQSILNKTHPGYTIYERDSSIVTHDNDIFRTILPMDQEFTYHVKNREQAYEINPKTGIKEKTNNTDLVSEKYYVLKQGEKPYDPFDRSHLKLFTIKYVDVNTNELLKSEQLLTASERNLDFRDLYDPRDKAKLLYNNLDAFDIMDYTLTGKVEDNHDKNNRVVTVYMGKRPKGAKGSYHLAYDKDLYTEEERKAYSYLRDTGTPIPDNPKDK
The experiment in a line: S. pyogenes streptokinase expression inhibitors, potency, dose response, plasminogen activation absorbance, OD405 (AID 1914).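 Further: secreted streptokinase activity via plasminogen activation per viability signal from cell pellet.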 Format: functional, Streptococcus pyogenes M1 GAS.

The subject of the next test is Streptococcus. The experiment in a line: Group A Streptococcus viability loss, dose response, counter-screen for streptokinase expression inhibitor project, luminescence, BacTiterGlo (AID 1915).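 Further: potency for reduction of bacterial viability or growth.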 It is filed as functional, organism-based.
For test [3], the target named is T1, Cytochrome P450 3A4.
Test [4] has as its target T4, Short transient receptor potential channel 4 (Mus musculus, UniProt Q9QUQ5).
T4 sequence (Q9QUQ5 whole entry): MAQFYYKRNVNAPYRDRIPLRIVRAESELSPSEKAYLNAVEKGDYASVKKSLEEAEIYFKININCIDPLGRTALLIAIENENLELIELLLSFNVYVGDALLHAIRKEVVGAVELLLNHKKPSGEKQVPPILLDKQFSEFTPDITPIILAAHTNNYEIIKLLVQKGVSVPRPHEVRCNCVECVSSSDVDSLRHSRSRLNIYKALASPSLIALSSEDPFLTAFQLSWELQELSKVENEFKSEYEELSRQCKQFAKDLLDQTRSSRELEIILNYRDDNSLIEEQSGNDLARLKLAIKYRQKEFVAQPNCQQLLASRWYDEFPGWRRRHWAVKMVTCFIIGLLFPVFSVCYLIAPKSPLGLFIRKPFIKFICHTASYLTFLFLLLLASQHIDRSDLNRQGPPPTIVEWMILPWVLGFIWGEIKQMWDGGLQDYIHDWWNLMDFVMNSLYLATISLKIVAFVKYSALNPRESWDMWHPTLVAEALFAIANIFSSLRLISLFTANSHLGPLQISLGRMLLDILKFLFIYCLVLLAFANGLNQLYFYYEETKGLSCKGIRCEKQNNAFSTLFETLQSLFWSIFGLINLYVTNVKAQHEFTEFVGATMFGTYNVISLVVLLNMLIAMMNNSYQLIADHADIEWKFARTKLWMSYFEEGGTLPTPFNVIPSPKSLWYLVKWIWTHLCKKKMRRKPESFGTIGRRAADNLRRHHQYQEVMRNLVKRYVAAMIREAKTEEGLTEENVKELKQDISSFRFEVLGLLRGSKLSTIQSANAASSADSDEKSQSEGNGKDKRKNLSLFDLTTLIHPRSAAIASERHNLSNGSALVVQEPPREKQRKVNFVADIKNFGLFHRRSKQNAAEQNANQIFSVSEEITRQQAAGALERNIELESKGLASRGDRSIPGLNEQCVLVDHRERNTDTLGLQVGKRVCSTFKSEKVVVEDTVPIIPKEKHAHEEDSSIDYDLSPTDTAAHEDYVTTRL
The experiment in a line: mouse TRPC4 channel inhibitors, dose response, cell-based, HEK293 TRPC4/mu-opioid, Fluo-4 calcium (AID 434942).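 Further: potency of inhibitors blocking the TRPC4 calcium response.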 It is filed as functional.

The target in test [5] is T5, Rac GTPase-activating protein 1 (Homo sapiens, UniProt Q9H0H5).
T5 sequence (Q9H0H5 whole entry): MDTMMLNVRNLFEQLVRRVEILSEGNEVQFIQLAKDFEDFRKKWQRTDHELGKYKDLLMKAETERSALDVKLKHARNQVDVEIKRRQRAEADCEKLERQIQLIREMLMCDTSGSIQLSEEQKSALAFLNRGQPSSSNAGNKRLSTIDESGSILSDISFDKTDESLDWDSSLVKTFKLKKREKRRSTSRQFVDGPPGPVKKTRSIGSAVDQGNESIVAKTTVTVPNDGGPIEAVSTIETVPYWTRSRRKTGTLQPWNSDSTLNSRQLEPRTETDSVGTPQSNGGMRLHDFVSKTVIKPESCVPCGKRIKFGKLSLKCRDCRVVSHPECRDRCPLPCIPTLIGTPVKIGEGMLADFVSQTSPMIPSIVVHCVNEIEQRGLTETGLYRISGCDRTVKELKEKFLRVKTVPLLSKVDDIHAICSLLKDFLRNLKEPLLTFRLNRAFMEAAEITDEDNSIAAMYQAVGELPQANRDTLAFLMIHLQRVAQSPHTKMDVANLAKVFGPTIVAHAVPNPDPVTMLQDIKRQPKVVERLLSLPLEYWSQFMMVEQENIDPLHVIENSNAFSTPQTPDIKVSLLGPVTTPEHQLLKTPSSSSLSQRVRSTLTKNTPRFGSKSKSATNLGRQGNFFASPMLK
Kind of test: MgcRacGAP GTPase-activating activity inhibitors, confirmation, biochemical, ADP Hunter fluorescence, primary and confirmatory (AID 624330). It is filed as functional.

The nature of test [6]: Luminescence Cell-Based Dose Response HTS to Identify Inhibitors of 5'UTR Stem-Loop Driven Prion Protein mRNA Translation in H4 Neuroglioblastoma Cells. [Related pubchem assays: 1827 (Project Summary), 1813 (Primary HTS)]. Format: functional.
Test [7] can be described thus: inhibitors of SNCA 5'UTR-driven reporter translation, confirmation, H4 neuroglioma cells, luminescence (AID 1988). Format: functional, cell-based.
Test [8] is described as follows: inhibitors of firefly luciferase expression or activity, dose response, H4 neuroglioma cells, luminescence (AID 1990). It is filed as functional, cell-based.

Molecules are shown by their SMILES. Calls of active or inactive are those of the source.

T1 sequence (P08684 whole entry): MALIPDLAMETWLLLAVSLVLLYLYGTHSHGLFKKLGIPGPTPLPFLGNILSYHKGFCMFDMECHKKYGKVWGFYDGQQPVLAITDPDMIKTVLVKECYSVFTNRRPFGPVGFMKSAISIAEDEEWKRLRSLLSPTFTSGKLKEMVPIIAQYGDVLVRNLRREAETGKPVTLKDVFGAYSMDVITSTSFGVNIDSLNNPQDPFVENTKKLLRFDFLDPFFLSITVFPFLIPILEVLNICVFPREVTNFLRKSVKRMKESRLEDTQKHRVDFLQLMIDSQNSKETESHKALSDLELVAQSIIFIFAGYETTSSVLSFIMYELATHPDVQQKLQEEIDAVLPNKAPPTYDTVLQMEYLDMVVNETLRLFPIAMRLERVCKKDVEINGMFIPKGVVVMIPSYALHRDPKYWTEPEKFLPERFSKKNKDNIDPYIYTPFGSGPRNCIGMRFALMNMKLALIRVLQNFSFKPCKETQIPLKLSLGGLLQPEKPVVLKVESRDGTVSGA

In general, AC50 refers to the concentration giving half of the maximal activity seen. Consider `CC1(C)C(O)CC(O)[C@]2(C)C1CC(O)[C@]1(C)C2CC[C@@]2(C)C(c3ccoc3)CC3OC312` (some centres undefined), for which the AC50 on Cytochrome P450 3A4 [1] is 3.16 µM (inconclusive). Regarding `COc1ccc2c(=O)cc(-c3ccccc3)oc2c1O`, the AC50 on Cytochrome P450 3A4 [1] is 39.8 µM (inconclusive).

In the case of `O=C(O[C@@H]1Cc2c(O)cc(O)cc2OC1c1ccc(O)c(O)c1)c1cc(O)c(O)c(O)c1` (some centres undefined), the AC50 at Cytochrome P450 3A4 [1] is 25.1 µM (inconclusive). As a reminder, the IC50 is the concentration at which inhibition is half-maximal. As for `Cc1sc2nc(SCC(=O)N3CCCC3)nc(O)c2c1C`, the IC50 in the test with H9c2 was > 79 µM (inactive). The term EC50 denotes the concentration at which the effect is half-maximal. Take `O=C(NC(=S)NNC(=O)c1ccc(Cl)cc1Cl)c1cccnc1`: the IC50 on Leucine aminopeptidase is 49.6 µM (active). The figures for the EC50 (in test [2]; on Streptokinase A; with Streptococcus) were 5.27 µM (active), > 150 µM (not active) and 96.5 µM (active), respectively.

In the case of `CCCCN(CC)c1c([N+](=O)[O-])cc(C(F)(F)F)cc1[N+](=O)[O-]` [BENFLURALIN], at Cytochrome P450 3A4 [1], the AC50 was 15.8 µM (inconclusive). Regarding `CC1=NNC(=O)C1CCC(=O)N/N=C\c1ccccc1[N+](=O)[O-]` (centres undefined), the IC50 on Leucine aminopeptidase was 3.14 µM (active). Further, on Cytochrome P450 3A4 [3], the AC50 was 17.8 µM (inconclusive). For `COCCN(CCOC)c1nc(C)nc2c1nc(-c1ccccc1)n2CCCN(C)C`, the AC50 at Cytochrome P450 3A4 [1] is 7.94 µM (inconclusive). Turning to `N#C/C(=C\c1cn(-c2ccccc2)nc1-c1cccnc1)c1nnc2n1CCCCC2`, in the test with H9c2, the IC50 is 15.8 µM (active). As for `Cc1nc2c3cc(Cl)ccc3n(CCN3CCCCC3)c2s1`, in test [4], the EC50 is 4.22 µM (active). As for `NS(=O)(=O)c1cccc(NC(=O)COC(=O)Cc2nnc(O)c3ccccc23)c1`, the IC50 with H9c2 is > 79 µM (inactive). Take `Cc1cc(=O)oc2c(O)c(O)ccc12` [4-METHYLDAPHNETIN]: the 50% inhibitory concentration (IC50) in [5] was 25.9 µM (active). Further, the AC50 on Cytochrome P450 3A4 [1] was 25.1 µM (inconclusive). In the case of `CCOC(=O)C1CCN(c2cc3c(cc2NC(=O)c2ccccc2)n(C)c(=O)n3C)CC1`, the IC50 with H9c2 is > 79 µM (inactive).

In the case of `Cc1ccc(NC(=O)CCc2nc(O)c3ccccc3n2)cc1S(=O)(=O)N1CCOCC1`, in the test with H9c2, the IC50 is > 79 µM (inactive). On to `COc1ccc(NC(=O)c2cccc(N3C(=O)C4CC=C(C)CC4C3=O)c2)c(OC)c1` (centres undefined), for which the 50% effective concentration (EC50) in [4] is 0.0173 µM (active). For `Cc1ccc(C=NNc2nc3c(=O)n(C)c(=O)n(C)c3[nH]2)cc1`, the IC50 in the test on H9c2 was > 79 µM (inactive). For the compound `COc1ccc(Br)cc1CNC(C)c1ccccc1` (centres undefined), in test [4], the EC50 is 5.31 µM (active). As for `O=C(Nc1ccccc1)N1CCN2C(=O)c3ccccc3C12c1ccccc1` (centres undefined), the EC50 in test [4] is 2.11 µM (active). Regarding `CCOC(=O)c1c(NC(=O)C2C3C=CC(C3)C2C(=O)O)sc2c1CC(C)CC2` (centres undefined), the IC50 at Leucine aminopeptidase is 10.1 µM (active). For the same compound, the EC50 in [6] was 60.9 µM (active); in test [7], 48.1 µM (active); in [8] it was > 120 µM (not active). `O=c1[nH]c2ccc(S(=O)(=O)N3CCN(Cc4ccccc4)CC3)cc2[nH]c1=O`: the IC50 on Leucine aminopeptidase is 2.62 µM (active). Regarding `COc1ccc(Cc2nnc(NS(=O)(=O)Cc3ccccc3)s2)cc1`, the IC50 at Leucine aminopeptidase is 6.34 µM (active).
